Test results: publication PMC3919579, “Timing of GTP binding and hydrolysis by translation termination factor RF3” (Nucleic Acids Research, 2013)

Target: T1, RF3 (Escherichia coli, UniProt P0A7I4)
T1 construct: gene prfC; free RF3, N-terminal His-tag, pET30a, BL21(DE3), Ni-NTA and Resource Q
Experiment: competition titration against mantGDP, FRET
Assay type: binding
Conditions: pH 7.5, 37 °C, 7 mM MgCl2; competition with purified RF3-mantGDP

T1 sequence (P0A7I4 2-529): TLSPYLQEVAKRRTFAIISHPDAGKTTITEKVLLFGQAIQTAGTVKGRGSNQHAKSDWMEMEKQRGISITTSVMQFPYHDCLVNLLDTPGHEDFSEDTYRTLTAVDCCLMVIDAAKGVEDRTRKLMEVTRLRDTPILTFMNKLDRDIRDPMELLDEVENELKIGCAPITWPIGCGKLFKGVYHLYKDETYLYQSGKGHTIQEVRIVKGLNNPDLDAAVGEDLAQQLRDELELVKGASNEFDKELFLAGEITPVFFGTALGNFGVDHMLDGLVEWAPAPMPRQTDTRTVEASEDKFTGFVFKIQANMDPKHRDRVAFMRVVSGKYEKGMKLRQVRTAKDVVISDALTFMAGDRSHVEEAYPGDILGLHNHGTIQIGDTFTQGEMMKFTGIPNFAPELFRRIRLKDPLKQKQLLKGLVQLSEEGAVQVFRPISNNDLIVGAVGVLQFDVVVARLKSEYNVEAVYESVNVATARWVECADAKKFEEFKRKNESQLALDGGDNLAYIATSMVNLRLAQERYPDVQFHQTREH

| SMILES | ratio of added nucleotide to mantGDP at half-saturation |
| --- | --- |
| Nc1nc2c(ncn2[C@@H]2O[C@H](COP(=O)(O)OP(=O)(O)CP(=O)(O)O)[C@@H](O)[C@H]2O)c(=O)[nH]1 [GDPCP] | 60 fold |
| Nc1nc2c(ncn2[C@@H]2O[C@H](COP(=O)(O)OP(=O)(O)NP(=O)(O)O)[C@@H](O)[C@H]2O)c(=O)[nH]1 [GDPNP] | 40 fold |
| Nc1nc2c(ncn2[C@@H]2O[C@H](COP(=O)(O)OP(=O)(O)O)[C@@H](O)[C@H]2O)c(=O)[nH]1 [GDP] | 1 fold |
| Nc1nc2c(ncn2[C@@H]2O[C@H](COP(=O)(O)OP(=O)(O)OP(=O)(O)O)[C@@H](O)[C@H]2O)c(=O)[nH]1 [GTP] | 3 fold |
